Source: patent US20250281627A1, “CANCER-TARGETING PEPTIDE, PRODRUG NANOPARTICLES COMPRISING SAME, AND PHARMACEUTICAL COMPOSITION COMPRISING SAME FOR CANCER PREVENTION OR TREATMENT” (priority 2022, published 2025)
Structures can show the parent of a compound that is named as a salt. Where two headings read alike, the source gives them in different places. Residues, ends and D or L forms follow the SMILES beside them. No end group written: not given here. *: point of attachment. Doxorubicin(3'-N) = COc1cccc2c1C(=O)c1c(O)c3c(c(O)c1C2=O)C[C@@](O)(C(=O)CO)C[C@@H]3O[C@H]1C[C@H](N*)[C@H](O)[C@H](C)O1; acyl = not defined here; DOX = doxorubicin

Tests used:
HT29 cells [1] = assay: cells; assay type: cell-based, human; conditions: 48 hours; for IC50: CCK-8
Method: (§1) In addition, cytotoxicity was investigated using CCK-8 (cell counting kit-8). Specifically, 1×10^4 HT29 cells and 0.5×10^4 H9C2 cells were seeded onto a 96-well plate, respectively, and stabilized by culturing for 24 hours. A single administration group, drug administration groups and a control group were obtained by administering the anticancer agent (DOX) alone (0.01 to 100 μM) or together with the prodrug nanoparticles of Example 4 and Comparative Example 3 (0.01 to 100 μM), respectively, to each well and incubating at 37° C. for 48 hours. After the incubation was completed, a culture medium containing a 10% CCK-8 solution was added. After conducting reaction for 20 minutes, analysis was made with a microplate reader at a wavelength of 450 nm. After plotting cell survivability depending on concentration, IC50 (half-maximal inhibitory concentration) values were obtained for the single administration group, drug administration groups and control group using the GraphPad Prism 8 software (GraphPad Software, San Diego, CA, USA).

H9C2 cells [2] = assay: Cytotoxicity CCK-8; assay type: cell-based, rat; conditions: for IC50: 48 hours, CCK-8, normal cells (cardiomyocytes)
Method: as §1

[3] = test system: HT29 tumor-bearing BALB/c nu/nu mice; assay: Distribution of prodrug nanoparticles in vivo (fluorescence imaging, ex vivo organs, tissue sections)
Method: After 3, 6 and 9 hours of the drug injection, the test groups were imaged using an IVIS Lumina Series III system. After euthanasia, liver, lung, spleen, kidney, heart and tumor tissues were recovered.
The obtained tissues were sliced into 10 μm-thick sections, which were mounted individually on a slide glass, and washed tice with DPBS. Then, after staining with […] for 20 minutes, fluorescence signals were observed by CLSM.

H9C2 cells [4] = assay: Cell-specific activity, DOX fluorescence distribution (CLSM); assay type: cell-based, rat; conditions: 5 μM, 48 hours
Method: (§2) Then, experiment was performed as follows to analyze specific activity for cells. First, 2×10^5 HT29 cells and 2×10^5 H9C2 cells were seeded onto a glass-bottomed confocal dish, respectively. Cathepsin B-inhibited cells (HT29-Inh) were prepared by pretreating HT29 cells with Z-Phe-Ala-FMK (20 μM) for 24 hours. After stabilizing the cells by culturing for 24 hours, and administering the anticancer agent (DOX) alone (5 μM) or together with the prodrug nanoparticles of Example 4 and Comparative Example 3 (5 μM), respectively, a single administration group, drug administration groups and a control group were obtained by incubating at 37° C. for 48 hours. […] Each group was imaged by CLSM to obtain a fluorescence image, and fluorescence intensity was quantified from the fluorescence image to investigate the distribution of the prodrug nanoparticles using the Image-Pro software (Media Cybernetics, Rockville, MD, USA).

[5] = test system: Cathepsin B-inhibited cells (HT29-Inh); assay: as above; assay type: cell-based, human; conditions: HT29-Inh cells (Z-Phe-Ala-FMK 20 μM pretreated), 5 μM, 48 hours
Method: as §2

tumor-free BALB/c mice [6] = assay: Toxicity in vivo, single administration; conditions: single i.v. administration
Method: Test groups 9 to 12 were prepared by injecting an anticancer agent (DOX) (3 or 4 mg/kg) or the prodrug nanoparticles of Example 4 (4 or 10 mg/kg based on DOX concentration) once to tumor-free BALB/c mice (5-week-old) via the tail vein (n=5 for each test group).
Tumor volume, body weight and survival rate were measured every day after injection of the drug to the test groups. 8 days later, the mice were euthanized and liver, lung, spleen, kidney, heart and cancer tissues were recovered. Each of the recovered liver, lung, spleen, kidney, heart and cancer tissues was fixed with 4% paraformaldehyde for 15 minutes, embedded in wax, and then sliced to 10 μm-thick sections. Then, after staining with H&E, the morphological damage to the tissues was analyzed by imaging with an optical microscope.
(§3) For evaluation of hematotoxicity, 1 mL of blood was taken from each test group, and blood plasma was separated by centrifuging at 4,500 rpm for 20 minutes. Blood analysis was performed according to the instructions of KNOTUS Co., Ltd. (Incheon, Korea).

[7] = test system: HT29 tumor-bearing BALB/c nu/nu mice; conditions: mouse, in vivo, iv
Method: (§4) 1×10^7 HT29 cells were subcutaneously injected into the left flank of the 5-week-old male BALB/c nu/nu mice. An animal model of cancer was prepared by breeding the mice until the tumor size grew to about 60 to 80 mm^3.
(§5) Test groups 6 to 8 were prepared by injecting an anticancer agent (DOX) (3 mg/kg) or the prodrug nanoparticles of Example 4 (4 or 10 mg/kg based on DOX concentration) to the animal model of cancer via the tail vein once in 3 days at the same time (n=5 for each test group). The overall treatment period was 26 days, and the number of drug administration was 8 times.
(§6) After the treatment period, tumor volume, body weight and survival rate of each test group were measured every 2 days. After euthanasia, liver, lung, spleen, kidney, heart and cancer tissues were recovered and subjected to histological and TUNEL assay.
(§7) The tumor volume was calculated from the longest diameter×(the shortest diameter)^2×0.53 of the cancer tissue, and a tumor volume larger than 1,000 mm^3 was judged as death.
(§8) For histological analysis, each of the recovered liver, lung, spleen, kidney, heart and cancer tissues was fixed with 4% paraformaldehyde for 15 minutes, embedded in wax, and then sliced to 10 μm-thick sections. Then, after staining with H&E, the morphological damage to the tissues was analyzed by imaging with an optical microscope.
(§9) The cancer tissue was stained by TUNEL (terminal deoxynucleotidyl transferase dUTP nick end labeling) analysis for visualization of the apoptotic region.

tumor-free BALB/c mice [8] = conditions: multiple administration; for body weight change: once in 3 days, 8 times
Method: 8 days later, the mice were euthanized and liver, lung, spleen, kidney, heart and cancer tissues were recovered. Each of the recovered liver, lung, spleen, kidney, heart and cancer tissues was fixed with 4% paraformaldehyde for 15 minutes, embedded in wax, and then sliced to 10 μm-thick sections. Then, after staining with H&E, the morphological damage to the tissues was analyzed by imaging with an optical microscope.
as §3

[9] = test system: HT29 tumor-bearing BALB/c nu/nu mice; assay: Anticancer effect in animal model of cancer
Method: as §4, §5, §6, §7, §8, §9

Cytotoxicity CCK-8 = assay type: cell-based, rat; conditions: rat, H9C2 cells; at 1 to 100 μM, 48 hours; read-out: survival rate of normal cells
Method: as §1

[10] = test system: T1, FRRL-DOX conjugate / prodrug nanoparticles of Example 4 (N-acylated Phe-Arg-Arg-Leu conjugated with doxorubicin)
T1 sequence: FRRG

HT29 colon cancer cells = assay: Cellular uptake and intranuclear localization (CLSM); assay type: cell-based, human; conditions: 5 μM
Method: The cellular uptake and intranuclear localization of the prodrug nanoparticles (5 μM) were analyzed using HT29 colon cancer cells. In order to investigate the intracellular behavior and intracellular interaction of the prodrug nanoparticles, 2×10^5 HT29 cells were seeded onto a glass-bottomed confocal dish. After stabilizing the cells by culturing for 24 hours, they were treated with the prodrug nanoparticles of Examples 4 to 6 and Comparative Example 3 (5 μM), and drug administration groups 1, 2 and 3 (FRRL-DOX, FRRLG-DOX, FLRRG-DOX) and a control group (FRRG-DOX) were obtained by incubating at 37° C. for 0, 24 and 48 hours. […] Each group was imaged by CLSM to obtain a fluorescence image, and fluorescence intensity was quantified from the fluorescence image to investigate the distribution of the prodrug nanoparticles using the Image-Pro software (Media Cybernetics, Rockville, MD, USA).

HT29 cells [11] = assay: Degradation after cellular uptake (MALDI-TOF of cell filtrate); assay type: cell-based, human; conditions: 100 μM, 48 hours
Method: In order to further investigate whether the prodrug nanoparticles are degraded after cellular uptake, 1×10^6 HT29 cells were seeded onto a 100-mm cell culture dish and stabilized by culturing for 24 hours. After administering the prodrug nanoparticles of Examples 4 to 6 and Comparative Example 3 (100 μM) to the cells, drug administration groups 1, 2 and 3 (FRRL-DOX, FRRLG-DOX, FLRRG-DOX) and a control group (FRRG-DOX) were obtained by incubating at 37° C. for 48 hours. Each group was washed with PBS and dispersed in distilled water (H2O). The dispersion was filtered through a 0.45-μm syringe filter, and the recovered filtrate was subjected to mass analysis by MALDI-TOF.

[12] = molecular target: lysosome enzymes other than cathepsin B; assay: cell-based or functional assay
[13] = i.v. once in 3 days, test group 6
[14] = test group 4, 4 mg/kg based on DOX

Molecule: COc1cccc2c1C(=O)c1c(O)c3c(c(O)c1C2=O)C[C@@](O)(C(=O)CO)C[C@@H]3O[C@H]1C[C@H](NC(=O)CNC(=O)[C@H](CCCNC(=N)N)NC(=O)[C@H](CCCNC(=N)N)NC(=O)[C@H](Cc2ccccc2)NC(C)=O)[C@H](O)[C@H](C)O1 [Comparative Example 3] (Ac-FRRG-{Doxorubicin(3'-N)})
- IC50 (HT29 cells [1]): 14.1 µM
- IC50 (H9C2 cells [2]): 158 µM
- accumulation in liver tissues relative to cancer tissues ([3]; test group 2, 4 mg/kg based on DOX, i.v.): 2.4 times
- accumulation in liver tissues relative to cancer tissues ([3]; test group 3, 10 mg/kg based on DOX, i.v.): 6.7 times

Molecule: COc1cccc2c1C(=O)c1c(O)c3c(c(O)c1C2=O)C[C@@](O)(C(=O)CO)C[C@@H]3O[C@H]1C[C@H](N)[C@H](O)[C@H](C)O1 [DOX, Doxorubicin hydrochloride]
- location of fluorescence of anticancer agent (DOX) (H9C2 cells [4]): penetrated into the cell nucleus
- location of fluorescence of anticancer agent (DOX) [5]: penetrated into the cell nucleus
- IC50 (HT29 cells [1]; Homo sapiens, HT-29): 0.12 µM
- survival rate in tumor cells versus normal cells (H9C2 cells [2]; HT29 versus H9C2): no difference in the survival rate
- IC50 (H9C2 cells [2]; Rattus norvegicus, H9c2): 0.12 µM
- red fluorescence (DOX) in cancer tissue sections ([3]; 4 mg/kg i.v., confocal, DAPI): hardly observed
- fluorescence intensity in kidney tissues relative to cancer tissues ([3]; 4 mg/kg i.v., test group 1): 8.8 times
- histochemical analysis of organ tissues (H&E) (tumor-free BALB/c mice [6]): damaged severely
- body weight decrease (tumor-free BALB/c mice [6]; 3 and 4 mg/kg): ≥ 9%
- systemic toxicity [7]: severe systemic toxicity
- hematotoxicity (tumor-free BALB/c mice [8]): significant hematotoxicity
- histochemical analysis of organ tissues (H&E) (tumor-free BALB/c mice [8]): normal tissues were destroyed and damaged
- all the mice died within (tumor-free BALB/c mice [8]; DOX 3 and 4 mg/kg): ≤ 20 days
- levels of hemoglobin and hematocrit (tumor-free BALB/c mice [8]; DOX 3 and 4 mg/kg): outside normal ranges
- body weight change (tumor-free BALB/c mice [8]): rapid body weight decrease
- histopathological analysis of cancer tissue ([9]; H&E, after treatment): relatively weak damage of the cancer tissue
- TUNEL assay of cancer tissue (green fluorescence) ([9]; after treatment): weak green fluorescence
- all the mice died within [9, 13]: ≤ 20 days
- death observed within [9, 13]: ≤ 5 days

Molecule: COc1cccc2c1C(=O)c1c(O)c3c(c(O)c1C2=O)C[C@@](O)(C(=O)CO)C[C@@H]3O[C@H]1C[C@H](NC(=O)[C@H](CC(C)C)NC(=O)[C@H](CCCNC(=N)N)NC(=O)[C@H](CCCNC(=N)N)NC(=O)[C@H](Cc2ccccc2)NC(C)=O)[C@H](O)[C@H](C)O1 [Example 4] (Ac-FRRL-{Doxorubicin(3'-N)})
- IC50 (HT29 cells [1]): 6.13 µM
- survival rate of cancer cells (HT29 cells [1]; at 1 to 100 μM): 0%
- viability at 48 h (Cytotoxicity CCK-8): 80%
- IC50 (H9C2 cells [2]): 182 µM
- accumulation efficiency for cancer tissues (in vivo fluorescence imaging) ([3]; 4 mg/kg based on DOX, i.v., 9 hours, vs DOX alone or Comparative Example 3): significantly high accumulation efficiency for cancer tissues
- cancer-targeting ability (fluorescence of isolated cancer tissue), times higher than DOX ([3]; 4 mg/kg based on DOX, i.v., test group 4 vs 1): 2.3 times
- cancer-targeting ability (fluorescence of isolated cancer tissue), times higher than Comparative Example 3 ([3]; 4 mg/kg based on DOX, i.v., test group 4 vs 2): 1.4 times
- accumulation in cancer tissues relative to kidney tissues ([3]; 4 and 10 mg/kg based on DOX, i.v., test groups 4 and 5): ≥ 2 times
- accumulation efficiency for liver tissues, times lower than Comparative Example 3 ([3]; first of two printed values (4 and 10 mg/kg groups)): 2.4 times
- accumulation efficiency for liver tissues, times lower than Comparative Example 3 ([3]; second of two printed values (4 and 10 mg/kg groups)): 4.8 times
- red fluorescence in cancer tissue sections, times stronger than test group 1 [3, 14]: 6.7 times
- red fluorescence in cancer tissue sections, times stronger than test group 3 [3, 14]: 2.6 times
- histochemical analysis of organ tissues (H&E) (tumor-free BALB/c mice [6]): no damaged organ tissue
- body weight change (tumor-free BALB/c mice [6]; 4 and 10 mg/kg based on DOX): no significant change in body weight
- hematotoxicity (tumor-free BALB/c mice [8]): no hematotoxicity
- histochemical analysis of organ tissues (H&E) (tumor-free BALB/c mice [8]): no significant damage of organ tissues
- all the mice survived healthily for (tumor-free BALB/c mice [8]; 4 and 10 mg/kg based on DOX): more than 26 days
- body weight change (tumor-free BALB/c mice [8]): no body weight change
- systemic toxicity ([9]; repeated i.v. administration in tumor-bearing mice): no severe systemic toxicity

Molecule: Cathepsin B (purchased from R&D Systems), enzyme in solution
- RP-HPLC peaks of conjugate and cleavage product over reaction time [10]: a peak of L-DOX was observed at 14.7 minutes 3 hours after the reaction. The peak of the FRRL-DOX conjugate began to decrease and was not detected at all 24 hours after the reaction

Molecule: Example 6: conjugate of N-terminally acylated peptide Phe-Leu-Arg-Arg-Gly (SEQ ID NO: 3) and doxorubicin; self-assembled prodrug nanoparticles (acyl-FLRRG-{DOX}; reading uncertain; also: printed as FLRRG-DOX)
- anticancer agent (DOX) delivered into the nucleus (ratio of accumulation in the nucleus) (HT29 colon cancer cells; 48 h, fluorescence intensity nucleus vs cytoplasm): 21%
- location of red fluorescence (DOX) in the cells (HT29 colon cancer cells; confocal images): mainly in the region other than the nucleus
- degradation of prodrug nanoparticles in the cancer cells (MALDI-TOF) (HT29 cells [11]): slightly low sensitivity to cathepsin B

B1: FLRRG-DOX conjugate / prodrug nanoparticles of Example 6 (N-acylated Phe-Leu-Arg-Arg-Gly conjugated with doxorubicin) (peptide)
peptide: FLRRG-{DOX}
modifications: not fully specified (N-terminus); printed as FLRRG-DOX
- degradation ratio (%) [12]: < 5%

B2: FRRLG-DOX conjugate / prodrug nanoparticles of Example 5 (N-acylated Phe-Arg-Arg-Leu-Gly conjugated with doxorubicin) (peptide)
peptide: FRRLG-{DOX}
modifications: not fully specified (N-terminus); printed as FRRLG-DOX
- degradation ratio (%) [12]: < 5%
